Results on 32 compounds are retold here after patent publication US8476287B2, “3-hydroxy-5-arylisothiazole derivative” (Mochida Pharmaceutical Co., Ltd., priority 2009, dated 2013).

Usually EC50 stands for the midpoint of the concentration-response curve.

Structures can show the parent of a compound that is named as a salt.

T1 sequence (O14842 whole entry): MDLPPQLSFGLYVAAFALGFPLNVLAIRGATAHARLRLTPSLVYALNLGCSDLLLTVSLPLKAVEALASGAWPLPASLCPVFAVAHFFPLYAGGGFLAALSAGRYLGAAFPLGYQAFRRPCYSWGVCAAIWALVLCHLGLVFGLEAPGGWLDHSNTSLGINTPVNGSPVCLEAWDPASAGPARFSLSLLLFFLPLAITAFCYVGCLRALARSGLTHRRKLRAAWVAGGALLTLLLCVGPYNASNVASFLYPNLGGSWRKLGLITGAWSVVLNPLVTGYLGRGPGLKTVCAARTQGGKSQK

The experiment addresses T1, GPR40 of human origin (Homo sapiens, UniProt O14842).
T1 construct: expressed in transfected cells
Description: Agonist action on GPR40 of human origin (Ca2+ fluorescence in CHO cells). The conditions noted are these: CHO cell strain stably expressing GPR40 of human origin; Ca2+ concentration fluctuation, fluorescent calcium indicator. It counts as cell-based. Here is the method: A CHO cell strain stably expressing GPR40 of human origin was used to determine the agonist action of a subject compound. This cell strain was seeded in a clear bottom 96 well plate at 4×10^4 cells/100 μL/well. The cell strain was cultured in a CO2 incubator overnight using a Ham's F-12 medium containing a 10% fetal bovine serum, 100 U/mL penicillin, 0.1 mg/mL streptomycin, and 400 μg/mL Geneticin. Calcium 4 Assay Kit (Molecular Devices) was used as a fluorescent calcium indicator. One mL of 77 mg/mL probenecid (Invitrogen) was added to 100 mL of a calcium indicator solution to prepare a solution (loading solution) mixed with a 20 mM HEPES-containing Hanks' balanced salt solution (HBSS) in equal proportions. 200 μL of the loading solution was added to the cells from which the culture solution was removed, and the cells were cultured in a CO2 incubator for 1 hour. The subject compound was diluted with a 20 mM HEPES-containing HBSS and was added to the cells by 50 μL, and the fluctuation of the Ca^2+ concentration was measured by an intracellular ion analyzer. The EC50 value of the subject compound was calculated using the dose-response curve of fluorescence intensity variation.
For the compound `Cc1cc(OCCCS(C)(=O)=O)cc(C)c1-c1cccc(COc2ccc(-c3cc(O)n[s+]3[O-])cc2)c1` (centres unmarked) [Example 44, 5-(4-((3-(2,6-dimethyl-4-(3-(methylsulfonyl)propoxy)phenyl)phenyl)methoxy)phenyl)isothiazol-3-ol 1-oxide(A)], the EC50 is < 0.3 µM.

Turning to `Cc1cc(OCCCO)cc(C)c1-c1cccc(COc2ccc(-c3cc(O)n[s+]3[O-])cc2)c1` (centres unmarked) [Example 47, 5-(4-((3-(2,6-dimethyl-4-(3-hydroxypropoxy)phenyl)phenyl)methoxy)phenyl)isothiazol-3-ol 1-oxide(A)], the 50% effective concentration (EC50) is < 0.3 µM.

`Cc1cc(OCCCO)nc(C)c1-c1cccc(COc2ccc(-c3cc(O)n[s+]3[O-])cc2)c1` (centres unmarked) [Example 49, 5-(4-((3-(2,4-dimethyl-6-(3-hydroxypropoxy)pyridin-3-yl)phenyl)methoxy)phenyl)isothiazol-3-ol 1-oxide(A)]: the EC50 was < 0.3 µM.

Turning to `Cc1cc(OCCO)cc(C)c1-c1cccc(COc2ccc(-c3cc(O)n[s+]3[O-])cc2)c1C` (centres unmarked) [Example 51, 5-(4-((3-(2,6-dimethyl-4-(2-hydroxyethoxy)phenyl)-2-methylphenyl)methoxy)phenyl)isothiazol-3-ol 1-oxide(A)], the EC50 was < 0.3 µM.

On to `Cc1nc(OCCO)ccc1-c1cccc(COc2ccc(-c3cc(O)n[s+]3[O-])cc2)c1C` (centres unmarked) [Example 52, 5-(4-((3-(2-methyl-6-(2-hydroxyethoxy)pyridin-3-yl)-2-methylphenyl)methoxy)phenyl)isothiazol-3-ol 1-oxide(A)], for which the EC50 lay in the range of 0.3 to 3 µM.

Consider `Cc1cc(OC[C@H](O)CO)cc(C)c1-c1cccc(COc2ccc(-c3cc(O)n[s+]3[O-])cc2)c1` (stereo partly drawn) [Example 55, 5-(4-((3-(4-((2R)-2,3-dihydroxypropoxy)-2,6-dimethylphenyl)phenyl)methoxy)phenyl)isothiazol-3-ol 1-oxide(A)], for which the EC50 is < 0.3 µM.

On to `Cc1cc(OC[C@H](O)CO)c(F)c(C)c1-c1cccc(COc2ccc(-c3cc(O)n[s+]3[O-])cc2)c1` (stereo partly drawn) [Example 59, 5-(4-((3-(4-((2R)-2,3-dihydroxypropoxy)-2,6-dimethyl-3-fluorophenyl)phenyl)methoxy)phenyl)isothiazol-3-ol 1-oxide(A)], for which the EC50 is < 0.3 µM.

On to `Cc1cc(OCC[C@H](C)O)cc(C)c1-c1cccc(COc2ccc(-c3cc(O)n[s+]3[O-])cc2)c1C` (stereo partly drawn) [Example 61, 5-(4-((3-(2,6-dimethyl-4-((3S)-3-hydroxybutoxy)phenyl)-2-methylphenyl)methoxy)phenyl)isothiazol-3-ol 1-oxide(A)], for which the EC50 is < 0.3 µM.

Regarding `Cc1cc(OCC[C@@H](C)O)cc(C)c1-c1cccc(COc2ccc(-c3cc(O)n[s+]3[O-])cc2)c1` (stereo partly drawn) [Example 63, 5-(4-((3-(2,6-dimethyl-4-((3R)-3-hydroxybutoxy)phenyl)phenyl)methoxy)phenyl)isothiazol-3-ol 1-oxide(A)], the EC50 was < 0.3 µM.

On to `Cc1cc(OCC[C@@H](C)O)cc(C)c1-c1cccc(COc2ccc(-c3cc(O)n[s+]3[O-])cc2)c1C` (stereo partly drawn) [Example 64, 5-(4-((3-(2,6-dimethyl-4-((3R)-3-hydroxybutoxy)phenyl)-2-methylphenyl)methoxy)phenyl)isothiazol-3-ol 1-oxide(A)], for which the EC50 was < 0.3 µM.

For the compound `[O-][s+]1nc(O)cc1-c1ccc(O[C@@H]2CCc3c(Br)cccc32)cc1` (stereo partly drawn) [Example 66, 5-(4-((1R)-4-bromo-2,3-dihydro-1H-inden-1-yloxy)phenyl)isothiazol-3-ol 1-oxide(A)], the EC50 was < 0.3 µM.

As for `[O-][s+]1nc(O)cc1-c1ccc(O[C@H]2CCc3c(Br)cccc32)cc1` (stereo partly drawn) [Example 67, 5-(4-((1S)-4-bromo-2,3-dihydro-1H-inden-1-yloxy)phenyl)isothiazol-3-ol 1-oxide(A)], the EC50 was in the range of 0.3 to 3 µM.

As for `[O-][s+]1nc(O)cc1-c1ccc(OC2CCc3c(Cl)cccc32)cc1` (centres unmarked) [Example 68, 5-(4-(4-chloro-2,3-dihydro-1H-inden-1-yloxy)phenyl)isothiazol-3-ol 1-oxide(A)], the EC50 is < 0.3 µM.

Turning to `[O-][s+]1nc(O)cc1-c1ccc(OC2CCc3c2cccc3C(F)(F)F)cc1` (centres unmarked) [Example 69, 5-(4-(4-trifluoromethyl-2,3-dihydro-1H-inden-1-yloxy)phenyl)isothiazol-3-ol 1-oxide(A)], the EC50 is < 0.3 µM.

Take `CC(=O)NCCCOc1ccc(-c2cccc(COc3ccc(-c4cc(O)n[s+]4[O-])cc3)c2C)c(C)n1` (centres unmarked) [Example 71, N-[3-[5-[3-[[4-(3-hydroxy-1-oxo-isothiazol-5-yl)phenoxy]methyl]-2-methylphenyl]-6-methylpyridin-2-yl]oxypropyl]acetamide(A)]: the EC50 was 0.3 to 3 µM.

For the compound `Cc1cc(OCCCNS(C)(=O)=O)cc(C)c1-c1cccc(COc2ccc(-c3cc(O)n[s+]3[O-])cc2)c1` (centres unmarked) [Example 72, N-[3-[4-[3-[[4-(3-hydroxy-1-oxo-isothiazol-5-yl)phenoxy]methyl]phenyl]-3,5-dimethylphenoxy]propyl]methanesulfonamide(A)], the EC50 was < 0.3 µM.

Turning to `Cc1cc(OCCCN)cc(C)c1-c1cccc(COc2ccc(-c3cc(O)n[s+]3[O-])cc2)c1` (centres unmarked) [Example 78, 5-[4-[[3-[4-(3-aminopropoxy)-2,6-dimethylphenyl]phenyl]methoxy]phenyl]isothiazol-3-ol 1-oxide(A)], the EC50 was < 0.3 µM.

Consider `[O-][s+]1nc(O)cc1-c1ccc(OC2COc3c2cccc3C(F)(F)F)cc1` (centres unmarked) [Example 80, 1-oxo-5-[4-[[7-(trifluoromethyl)-2,3-dihydro-1-benzofuran-3-yl]oxy]phenyl]-1,2-thiazol-3-ol (A)], for which the EC50 is < 0.3 µM.

Consider `[O-][s+]1nc(O)cc1-c1ccc(OC2CCOc3cc(C(F)(F)F)ccc32)cc1` (centres unmarked) [Example 83, 5-[4-[[7-(trifluoromethyl)-3,4-dihydro-2H-chromen-4-yl]oxy]phenyl]isothiazol-3-ol 1-oxide(A)], for which the EC50 was in the range of 0.3 to 3 µM.

Consider `CC1(C)CCC(C)(C)c2cc(COc3ccc(-c4cc(O)n[s+]4[O-])cc3)ccc21` (centres unmarked) [Example 85, 5-[4-[(5,5,8,8-tetramethyl-6,7-dihydronaphthalen-2-yl)methoxy]phenyl]isothiazol-3-ol 1-oxide(A)], for which the concentration for a half-maximal effect (EC50) is < 0.3 µM.

On to `[O-][s+]1nc(O)cc1-c1ccc(OCc2cccc(Cl)c2Cl)cc1` (centres unmarked) [Example 86, 5-[4-[(2,3-dichlorophenyl)methoxy]phenyl]isothiazol-3-ol 1-oxide(A)], for which the EC50 is < 0.3 µM.

Regarding `C[C@@H](Oc1ccc(-c2cc(O)n[s+]2[O-])cc1)c1cccc(Br)c1` (stereo partly drawn) [Example 88, 5-[4-[(1R)-1-(3-bromophenyl)ethoxy]phenyl]isothiazol-3-ol 1-oxide(A)], the EC50 lay within 0.3 to 3 µM.

For `Cc1c(Br)cccc1COc1ccc(-c2cc(O)n[s+]2[O-])cc1` (centres unmarked) [Example 91, 5-[4-[(3-bromo-2-methylphenyl)methoxy]phenyl]isothiazol-3-ol 1-oxide(A)], the EC50 lay in the range of 0.3 to 3 µM.

Regarding `Cc1cccc(C)c1N1CCC[C@H](COc2ccc(-c3cc(O)n[s+]3[O-])cc2)C1` (stereo partly drawn) [Example 96, 5-[4-[[(3S)-1-(2,6-dimethylphenyl)piperidin-3-yl]methoxy]phenyl]isothiazol-3-ol 1-oxide (A)], the EC50 is < 0.3 µM.

Regarding `[O-][s+]1nc(O)cc1-c1ccc(OCCc2cccc(Oc3ccccc3)c2)cc1` (centres unmarked) [Example 106, 5-[4-[2-(3-phenoxyphenyl)ethoxy]phenyl]isothiazol-3-ol 1-oxide], the EC50 lay in the range of 0.3 to 3 µM.

As to `COc1ccc(-c2cccc3c2CC[C@H]3Oc2ccc(-c3cc(O)n[s+]3[O-])cc2)c(C)n1` (stereo partly drawn) [Example 119, 5-[4-[[(1R)-4-(6-methoxy-2-methylpyridin-3-yl)-2,3-dihydro-1H-inden-1-yl]oxy]phenyl]isothiazol-3-ol 1-oxide(A)trifluoroacetate salt], the EC50 was < 0.3 µM.

In the case of `[O-][s+]1nc(O)cc1-c1ccc(O[C@@H]2CCc3c(C4=CCOCC4)cccc32)cc1` (stereo partly drawn) [Example 121, 5-[4-[[(1R)-4-(3,6-dihydro-2H-pyran-4-yl)-2,3-dihydro-1H-inden-1-yl]oxy]phenyl]isothiazol-3-ol 1-oxide(A)], the EC50 was in the range of 0.3 to 3 µM.

As to `[O-][s+]1nc(O)cc1-c1ccc(OC2CCc3c(Oc4ccccc4)cccc32)cc1` (centres unmarked) [Example 124, 5-[4-[(4-phenoxy-2,3-dihydro-1H-inden-1-yl)oxy]phenyl]isothiazol-3-ol 1-oxide(A)], the EC50 is < 0.3 µM.

`Cc1ncccc1Oc1cccc2c1CCC2Oc1ccc(-c2cc(O)n[s+]2[O-])cc1` (centres unmarked) [Example 125, 5-[4-[[4-(2-methylpyridin-3-yl)oxy-2,3-dihydro-1H-inden-1-yl]oxy]phenyl]isothiazol-3-ol 1-oxide(A)]: the EC50 is < 0.3 µM.

Take `COc1cc(Oc2cccc3c2CCC3Oc2ccc(-c3cc(O)n[s+]3[O-])cc2)ccn1` (centres unmarked) [Example 126, 5-[4-[[4-(2-methoxypyridin-4-yl)oxy-2,3-dihydro-1H-inden-1-yl]oxy]phenyl]isothiazol-3-ol 1-oxide(A)]: the EC50 is < 0.3 µM.

On to `[O-][s+]1nc(O)cc1-c1ccc(OC2CCc3c(OCc4ccccc4)cccc32)cc1` (centres unmarked) [Example 129, 5-[4-[(4-phenylmethoxy-2,3-dihydro-1H-inden-1-yl)oxy]phenyl]isothiazol-3-ol 1-oxide(A)], for which the EC50 is < 0.3 µM.

For `[O-][s+]1nc(O)cc1-c1ccc(OC2CCc3c(OC4CCCCC4)cccc32)cc1` (centres unmarked) [Example 131, 5-[4-[(4-cyclohexyloxy-2,3-dihydro-1H-inden-1-yl)oxy]phenyl]isothiazol-3-ol 1-oxide(A)], the EC50 was < 0.3 µM.
